{"source": "patent US20150190322A1", "about": "“COMPOSITION, METHOD AND KIT FOR ENHANCING HAIR” (PHARMA PATENT HOLDING INC., priority 2009, published 2015)", "origin": "cited, not measured here", "settings": "in some patients, during use for reduction of intraocular pressure", "data": [{"smiles": "CC(C)OC(=O)CCC/C=C\\C[C@@H]1[C@@H](CC[C@@H](O)CCc2ccccc2)[C@H](O)C[C@@H]1O", "note": "[Latanoprost, isopropyl-(Z)-7[(1R, 2R, 3R, 5S)3,5-dihydroxy-2-[(3R)-3-hydroxy-5-phenylp-entyl]cyclopentyl]-5-heptenoate]", "values": [{"measurement": "pigmentation and growth of eyelashes", "result": "increasing pigmentation and growth of eyelashes"}]}]}
